Laboratory results as given in patent US20130231472A1, “USE OF MOLECULAR MARKERS FOR THE PRECLINICAL PROFILING OF INHIBITORS OF ENZYMES HAVING HISTONE DEACETYLASE ACTIVITY” (priority 2002, published 2013).

Key:
[1] = system: acute promyelocytic leukemia mice; experiment: Secondary acute promyelocytic leukemia mouse model: survival and splenomegaly; assay type: in vivo
From the text: FIG. 1: (A) Secondary acute promyelocytic leukemias were induced in mice. In brief, primary leukemias were induced in mice by injecting PMURAR expressing bone marrow cells into the tail veins. Mice with overt leukemias were euthanized, and leukemic cells were harvested from the spleen. Leukemic cells were re-injected i.v. (1×10^7 cells/mouse) in non-irradiated, syngeneic recipient mice. The secondary recipient mice developed overt leukemia in about 2-3 weeks. Leukemic mice or healthy mice (Ctrl) were then treated with placebo (lanes 1, 3), or VPA (400 mg/kg every 12 hours) for two consecutive weeks. (B) Leukemic mice were treated with placebo (lower, Ctrl) or VPA (400 mg/kg every twelve hours, upper) for one week. At the end of the treatment, mice were sacrificed, and spleens were photographed.

acetylated histones = experiment: Histone acetylation in spleen after in vivo treatment (Western blot, immunohistochemistry); design: species or system mice; settings: for histone acetylation, spleen whole cell extracts: VPA 400 mg/kg, three and six hours, FIG. 2A
Description: FIG. 2: (A) Secondary acute promyelocytic leukemias were induced in mice as described above. (A) Leukemic mice or healthy mice (Ctrl) were then treated with placebo or VPA (400 mg/kg) for three and six hours. Mice were then sacrificed, whole cell extracts were prepared from the spleen (with >70% leukemic infiltration), and analyzed by SDS-PAGE followed by Western blot analysis using commercially available antibodies against acetylated histone H3. (B) Immunohistochemistry analysis of VPA-treated leukemic mice using a monoclonal antibody against acetylated histones.

HDAC-3 = HDAC-3 protein levels (Westernblot, reference); assay type: cell-based; settings: 1 mM VPA; FIG. 6A; in some experiments a transient induction
Description: FIG. 6: (A) F9 teratocarcinoma or HEK293T embryonic kidney cells were exposed for indicated times to 1 mM VPA. Protein levels of HDAC-2 and HDACs 1 or 3 for reference (HDAC8; N-CoR and Sin3 as data not shown) were determined by Westernblot analysis. […] (C) The effect of other HDAC inhibitors on the amount of HDAC-2 protein was determined by using TSA (100 nM) in a time course analysis in F9 cells (left panel). The HDAC inhibitors TSA (100 nM), trapoxin (TPX, 10 nM), butyrate (1.5 mM) or MS275 (5 μM) were tested at a single time of exposure in HEK293T cells (right panel).

RLIM = RLIM protein levels in HEK293T cells (Westernblot); assay type: cell-based, human; settings: 24 hours, VPA 0.5, 1.5 or 5 mM, TSA 30, 100 or 300 nM, FIG. 12
Description: FIG. 12 (A) RLIM protein levels were determined by Westernblot analysis after treatment of HEK293T cells for 24 hours with the HDAC inhibitors VPA (0.5, 1.5, or 5 mM), TSA (30, 100 or 300 nM) or a combination of VPA (1.5 mM) and TSA (100 nM). Actin protein levels are shown as a control for equal loading. (B) RLIM protein levels were determined by Westernblot analysis after treatment of HEK293T cells for 24 hours with the HDAC inhibitor TSA (100 nM), the proteasome inhibitor ALLN (2.5 μM) or a combination of both. Actin protein levels are shown as a control for equal loading.

CCCC(CCC)C(=O)O [VPA, Valproic acid]
survival of leukemic mice ([1]; VPA 400 mg/kg every 12 hours for two consecutive weeks vs placebo, P<0.01, FIG. 1A): extended survival of leukemic mice in a statistically significant way | splenomegaly caused by blast infiltration ([1]; VPA 400 mg/kg every twelve hours for one week vs placebo, FIG. 1B): dramatic reduction in the splenomegaly | histone acetylation, spleen whole cell extracts (acetylated histones; leukemic mice (>70% leukemic infiltration)): enhanced levels of histone acetylation | histone acetylation by immunohistochemistry (acetylated histones; leukemic mice, monoclonal antibody against acetylated histones, FIG. 2B): dramatic increase of histone acetylation in all cells | histone acetylation, spleen whole cell extracts (acetylated histones; normal mice): enhanced levels of histone acetylation | HDAC-3 protein levels (HDAC-3): not reduced | RLIM protein levels / degradation (RLIM): without changing expression of the E3 ubiquitin ligase, RLIM
